Source: patent EP1772146A1, “Polyunsaturated fatty acids as bace inhibitors” (Neuropharma, S.A., priority 2005, dated 2007)
Like-named read-outs stand apart in the source and are kept apart here.

Biological target: T1, rhBACE-1 β-Secretase recombinant human (Homo sapiens, UniProt P56817)
T1 construct: purchased R&D Systems 931-AS
Assay: BACE assay (FRET, fluorogenic peptide substrate cleavage)
Assay type: biochemical
Conditions: for activity at 10 µM: read-out: % BACE Activity (10^-5 M)
Source text: The aim of this assay is to determine if a compound, either synthetic or of marine origin, is a BACE-1 inhibitor, to avoid the formation of Aβ. This assay is based on FRET technology (Fluorescence Resonance Energy Transfer). FRET is used to measure cleavage of a peptide substrate, among other uses. […] When a substrate peptide cleavage occurs, the energy balance is broken and all the donor fluorescence can be observed. The increase in fluorescence is linearly related to the rate of proteolysis (Gordon, GW et al., 1998). In this assay the reaction occurs between an enzyme, purified BACE-1, and a fluorogenic peptidic substrate who present the "Swedish mutation". The peptide cleavage by BACE-1 produces fluorescence energy and enzymatic activity can be quantified. The reagents which are used in this assay are the following: • rhBACE-1 β-Secretase recombinant human (R&D Systems. Ref. 931-AS). • Fluorogenic Peptide Substrate IV (R&D Systems. Ref. ES004). • B-SECRETASE INHIBITOR H-4848. (BACHEM. Ref. H-4848.0001). • FLUOSTAR OPTIMA plate reader with 320 nm excitation filter and 405 nm emission filter (Biogen cientifica). • Black microwell plate, 96 wells (Nunc. Ref. 00006877). Supplier: Dismadel. • Sodium acetate.
The assay is carried out in a 96 wells microplate. The final concentration of substrate is 3,5 µM per well, and the enzyme concentration is 0,5 µg/ml. The final volume of the assay is 100 µl per well and all reagents are diluted in Reaction Buffer. The compounds are tested at a concentration of 10^-5. The control in the assay is the commercial inhibitor β-Secretase inhibitor H-4848, which is tested at 300 nM. All the samples and controls are studied by duplicate.
The plate is mixed gently and changes in the fluorescence are measured using the plate reader, with "BACE" protocol. The temperature should be preferably maintained between 25 and 30 °C. Measurements are carried out every ten minutes during an hour. The first measure is subtracted from the last to calculate the fluorescence increase, evaluating the enzymatic activity. The 100% activity is calculated as the mean of the results of wells without sample or inhibitor.
Further information regarding this assay may be found in the following references, which are incorporated by reference into the present application: • Andrau, D et al; "BACE1- and BACE2-expressing human cells: characterization of beta-Amyloid precursor protein-derived catabolites, design of a novel fluorimetric assay, and identification of new in vitro inhibitors". J Biol Chem. 2003 Jul 11;278(28):25859-66. Gordon, GW et al; "Quantitative fluorescence resonance energy transfer measurements using fluorescence microscopy." Biophys J. 1998 May; 74:2702-13.

[1] = comparative examples (derivatives of arachidonic acid) at 10^-5 M, mean results, remaining enzyme activity, 100% = wells without sample or inhibitor
[2] = fatty acids of formula (I) at 10^-5 M, mean results, remaining enzyme activity, 100% = wells without sample or inhibitor

T1 sequence (P56817 46-457 limits assumed): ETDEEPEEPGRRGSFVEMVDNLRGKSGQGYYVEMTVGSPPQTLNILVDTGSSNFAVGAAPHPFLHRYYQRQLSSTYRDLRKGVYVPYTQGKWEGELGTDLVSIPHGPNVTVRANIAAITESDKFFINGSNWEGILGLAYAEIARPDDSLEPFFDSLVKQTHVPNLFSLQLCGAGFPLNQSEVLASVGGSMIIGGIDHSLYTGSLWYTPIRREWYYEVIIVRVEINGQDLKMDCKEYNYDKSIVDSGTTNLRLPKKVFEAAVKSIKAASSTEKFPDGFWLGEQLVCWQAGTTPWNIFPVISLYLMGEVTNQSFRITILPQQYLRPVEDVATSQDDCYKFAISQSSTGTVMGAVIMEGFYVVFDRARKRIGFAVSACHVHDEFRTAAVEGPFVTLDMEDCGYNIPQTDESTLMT

activity at 10 µM [1] [%] | Molecule | activity at 10 µM [%] | also measured
– | CCCCCC=CCC=CCC=CCC=CCCCC(=O)NCCO [Anandamide, Icosa-5,8,11,14-tetraenoic acid (2-hydroxy-ethyl)-amide] | 100 | –
– | CCCCC/C=C\C/C=C\C/C=C\C/C=C\CCCC(=O)O [Arachidonic acid, cis,cis,cis,cis-5,8,11,14-Eicosatetraenoic acid] | 48.7 | –
100 | CCCCCC=CCC=CCC=CCC=CCCCCOC(C)=O [Arachidonyl Acetate, Acetic acid icosa-5,8,11,14-tetraenyl ester] | – | –
100 | CCCCCC=CCC=CCC=CCC=CCCCCO [Arachidonyl alcohol, Icosa-5,8,11,14-tetraen-1-ol] | – | –
– | CC/C=C\C/C=C\C/C=C\C/C=C\C/C=C\C/C=C\CCC(=O)O [Docosahexaenoic acid (DHA), cis-4,7,10,13,16,19-Docosahexaenoic Acid] | – | activity at 10 µM [2]: 82%
100 | CCCCCC=CCC=CCC=CCC=CCCCC(=O)OCC [Ethyl arachidonate, 5,8,11,14-Eicosatetraenoic acid ethyl ester] | – | –
– | CCCCC/C=C\C/C=C\CCCCCCCC(=O)O [Linoleic acid, cis-9,cis-12-Octadecadienoic acid] | – | activity at 10 µM [2]: 55%
– | CC/C=C\C/C=C\C/C=C\CCCCCCCC(=O)O [Linolenic acid, cis,cis,cis-9,12,15-Octadecatrienoic acid] | 55.5 | –
– | Cyclopropanecarboxylic acid icosa-5,8,11,14-tetraenylam ide [Arachidonylcyclopropylamide (ACPA)] | – | % BACE Activity (10^-5 M) (comparative examples (derivatives of arachidonic acid) at 10^-5 M, mean results, remaining enzyme activity, 100% = wells without sample or inhibitor, 10 µM): 100%
